From the CheMixHub ionic liquid set

Test: xn = mol fraction of the nth substance listed

CC[n+]1ccn(C)c1.[Cl][Al-]([Cl])([Cl])[Cl] + CCn1cc[n+](C)c1.[Cl][Al-]([Cl])([Cl])[Cl+][Al-]([Cl])([Cl])[Cl]
100 kPa
Details | viscosity [mPa·s]
293.15 K, x2 = 0.2046 | 19.38
303.15 K, x2 = 0 | 15.69
303.15 K, x2 = 0.3035 | 14.44
303.15 K, x2 = 0.5041 | 13.77
303.15 K, x2 = 0.6955 | 13.21
323.15 K, x2 = 0.4003 | 9.033
323.15 K, x2 = 0.5962 | 8.65
323.15 K, x2 = 0.6955 | 8.468
323.15 K, x2 = 0.7963 | 8.286
333.15 K, x2 = 0.1016 | 8.016
333.15 K, x2 = 0.2046 | 7.821
333.15 K, x2 = 0.8901 | 6.726
343.15 K, x2 = 0.5962 | 6.037
343.15 K, x2 = 0.6955 | 5.906
353.15 K, x2 = 0.1016 | 5.806

CCn1cc[n+](C)c1.N[C@@H](CO)C(=O)[O-] + O
100 kPa
Details | electrical conductivity [S/m]
303.15 K, x1 = 0.9276 | 0.0944
308.15 K, x1 = 0.9133 | 0.132
313.15 K, x1 = 0.9133 | 0.169
313.15 K, x1 = 0.9276 | 0.166
318.15 K, x1 = 0.8699 | 0.223
318.15 K, x1 = 0.884 | 0.221
323.15 K, x1 = 0.9133 | 0.269
328.15 K, x1 = 0.884 | 0.346
333.15 K, x1 = 0.8699 | 0.436
333.15 K, x1 = 0.884 | 0.432
338.15 K, x1 = 0.9276 | 0.511

Cc1ccccc1 + CCCCCC[N+]1(C)CCCC1.O=S(=O)([N-]S(=O)(=O)C(F)(F)F)C(F)(F)F
Details | viscosity [mPa·s]
308.15 K, 100 kPa, x1 = 1 | 0.509

CCCCCC[n+]1ccn(C)c1.N#C[S-] + [Cl-].[Li+] + CN1CCCC1=O
298.15 K, 101 kPa
Details | viscosity [mPa·s]
x1 = 0.001304, x2 = 0.1036 | 5.036
x1 = 0.001343, x2 = 0.0415 | 2.652
x1 = 0.001443, x2 = 0.07122 | 3.694
x1 = 0.002891, x2 = 0.1035 | 5.064
x1 = 0.002967, x2 = 0.07111 | 3.723
x1 = 0.00301, x2 = 0.04143 | 2.691
x1 = 0.004262, x2 = 0.1033 | 5.092
x1 = 0.004468, x2 = 0.071 | 3.75
x1 = 0.004767, x2 = 0.04136 | 2.745
x1 = 0.00607, x2 = 0.1032 | 5.12
x1 = 0.006095, x2 = 0.07088 | 3.806
x1 = 0.00649, x2 = 0.04129 | 2.765
x1 = 0.007465, x2 = 0.07079 | 3.848
x1 = 0.007616, x2 = 0.04124 | 2.776
x1 = 0.007643, x2 = 0.103 | 5.148
x1 = 0.008578, x2 = 0.07071 | 3.887
x1 = 0.008753, x2 = 0.1029 | 5.176
x1 = 0.009233, x2 = 0.04117 | 2.794
x1 = 0.01021, x2 = 0.1027 | 5.204
x1 = 0.0105, x2 = 0.04112 | 2.823
x1 = 0.0108, x2 = 0.07055 | 3.923
x1 = 0.01107, x2 = 0.1026 | 5.231
x1 = 0.01163, x2 = 0.04107 | 2.837
x1 = 0.01204, x2 = 0.07046 | 3.961

CN(C)c1ccccc1 + CCCC[n+]1ccn(C)c1.O=S(=O)([N-]S(=O)(=O)C(F)(F)F)C(F)(F)F
viscosity [mPa·s], 100 kPa
Details | 288.15 K | 293.15 K | 298.15 K | 303.15 K | 308.15 K | 313.15 K | 318.15 K | 323.15 K | 328.15 K | 333.15 K
x1 = 0.1 | 65.1 | 51.3 | 41.3 | 34 | 28.3 | 23.6 | 20.23 | 17.37 | 15.09 | 13.19
x1 = 0.2 | 52.2 | 41.4 | 33.6 | 28 | 23.4 | 19.61 | 16.9 | 14.6 | 12.74 | 11.19
x1 = 0.2993 | 40.5 | 32.4 | 26.6 | 22.26 | 18.75 | 15.88 | 13.77 | 11.97 | 10.49 | 9.29
x1 = 0.4001 | 30.4 | 24.6 | 20.44 | 17.16 | 14.66 | 12.5 | 10.93 | 9.56 | 8.44 | 7.52
x1 = 0.5005 | 21.72 | 17.79 | 15.06 | 12.73 | 10.96 | 9.44 | 8.34 | 7.36 | 6.55 | 5.86
x1 = 0.5993 | 15.08 | 12.54 | 10.77 | 9.21 | 8.02 | 7 | 6.21 | 5.53 | 4.98 | 4.49
x1 = 0.7 | 9.89 | 8.36 | 7.29 | 6.34 | 5.58 | 4.93 | 4.42 | 3.98 | 3.62 | 3.29
x1 = 0.7996 | 6.07 | 5.25 | 4.64 | 4.12 | 3.68 | 3.3 | 3 | 2.74 | 2.5 | 2.3
x1 = 0.8997 | 3.33 | 2.96 | 2.67 | 2.42 | 2.205 | 2.028 | 1.858 | 1.716 | 1.591 | 1.485
x1 = 1 | 1.536 | 1.415 | 1.302 | 1.206 | 1.123 | 1.056 | 0.981 | 0.92 | 0.865 | 0.819

CCCCCC[n+]1ccccc1.O=[N+]([O-])[O-] + CC#N
298.15 K, 101 kPa
Details | viscosity [mPa·s]
x1 = 0.004149 | 0.5468
x1 = 0.008252 | 0.6095
x1 = 0.0124 | 0.6478
x1 = 0.01616 | 0.6731
x1 = 0.02021 | 0.6913
x1 = 0.02422 | 0.7042
x1 = 0.02814 | 0.7132
x1 = 0.032 | 0.7169
x1 = 0.03564 | 0.7185
x1 = 0.03937 | 0.7176

CCCCCCCCCCCCCC[P+](CCCC)(CCCC)CCCC.CCCCCCCCCCCCc1ccccc1S(=O)(=O)[O-] + CCCCCCCCCCCC
101 kPa
Details | viscosity [mPa·s]
298.15 K, x1 = 0.4402 | 456
303.15 K, x1 = 0.4402 | 325
308.15 K, x1 = 0.4844 | 319
313.15 K, x1 = 0.354 | 127
313.15 K, x1 = 0.4402 | 180
313.15 K, x1 = 0.4844 | 236
318.15 K, x1 = 0.6789 | 596
328.15 K, x1 = 0.354 | 59.1
328.15 K, x1 = 0.6789 | 316
338.15 K, x1 = 0.354 | 39.1
338.15 K, x1 = 0.4844 | 65.1
343.15 K, x1 = 0.6789 | 133
353.15 K, x1 = 0.6789 | 86.1

CCOCC[n+]1ccn(CCC#N)c1.O=S(=O)([N-]S(=O)(=O)C(F)(F)F)C(F)(F)F + CS(C)=O
101.3 kPa
Details | electrical conductivity [S/m] | viscosity [mPa·s]
293.15 K, x1 = 0.0989 | 0.00113 | –
293.15 K, x1 = 0.1981 | 0.00401 | –
293.15 K, x1 = 0.2776 | 0.00964 | –
293.15 K, x1 = 0.597 | 0.0383 | 59.7
293.15 K, x1 = 0.798 | – | 102.3
293.15 K, x1 = 0.89 | 0.0703 | 210.3
303.15 K, x1 = 0.0989 | 0.00132 | –
303.15 K, x1 = 0.1981 | 0.00478 | –
303.15 K, x1 = 0.721 | 0.0577 | 40.7
313.15 K, x1 = 0.0989 | 0.00155 | –
313.15 K, x1 = 0.1981 | 0.00607 | –
323.15 K, x1 = 0.0989 | 0.00196 | 3.457
323.15 K, x1 = 0.1981 | 0.00772 | 4.04
323.15 K, x1 = 0.3971 | 0.0389 | 9.78
323.15 K, x1 = 0.5029 | 0.0621 | 13.05
323.15 K, x1 = 0.721 | 0.108 | 20.71

CC[NH3+].O=[N+]([O-])[O-] + CC[N+](CC)(CC)CC.O=[N+]([O-])[O-]
Details | viscosity [mPa·s]
338.15 K, 101 kPa, x2 = 0 | 12.5

CC(=O)[O-].[Na+] + CC(=O)[O-].CC[n+]1ccn(C)c1
303.15 K, 101 kPa, x1 = 0.1001
Details | electrical conductivity [S/m] | viscosity [mPa·s]
– | 0.252 | 147.4

CCCC[n+]1ccccc1.N#C[N-]C#N + CC1COC(=O)O1
101 kPa
Details | electrical conductivity [S/m] | viscosity [mPa·s]
288.15 K, x1 = 0.1003 | 0.537 | 4.857
293.15 K, x1 = 0.4997 | 1.69 | 14.49
298.15 K, x1 = 0.3005 | 1.76 | 6.995
298.15 K, x1 = 0.7011 | 2.05 | 19.85
298.15 K, x1 = 0.7885 | 2.28 | 24.95
303.15 K, x1 = 0.3005 | 1.98 | 6.097
303.15 K, x1 = 0.6002 | 2.338 | 13.28
308.15 K, x1 = 0.1003 | 1.38 | 3.024
308.15 K, x1 = 0.3005 | 2.227 | 5.372
308.15 K, x1 = 0.7011 | 2.55 | 14.09
313.15 K, x1 = 0.1003 | 1.6 | 2.75
313.15 K, x1 = 0.3005 | 2.49 | 4.766
318.15 K, x1 = 0.1003 | 1.77 | 2.498
318.15 K, x1 = 0.7011 | 3.09 | 10.47
323.15 K, x1 = 0.197 | 2.44 | 3.04
323.15 K, x1 = 0.3005 | 3.038 | 3.842
323.15 K, x1 = 0.7011 | 3.432 | 9.16
323.15 K, x1 = 0.7885 | 3.732 | 10.85
328.15 K, x1 = 0.6002 | 3.724 | 6.707
328.15 K, x1 = 1 | 3.2 | 12.59
333.15 K, x1 = 0.197 | 2.94 | 2.58
333.15 K, x1 = 0.3005 | 3.66 | 3.172
333.15 K, x1 = 0.7011 | 4.16 | 7.185
333.15 K, x1 = 1 | 3.49 | 11.08
338.15 K, x1 = 0.197 | 3.17 | 2.394
343.15 K, x1 = 0.7011 | 4.98 | 5.796
343.15 K, x1 = 0.9008 | 5.122 | 7.641
348.15 K, x1 = 0.3005 | 4.732 | 2.474
348.15 K, x1 = 0.7011 | 5.416 | 5.253
353.15 K, x1 = 0.4003 | 5.33 | 2.965

OC[C@H]1O[C@@](CO)(O[C@H]2O[C@H](CO)[C@@H](O)[C@H](O)[C@H]2O)[C@@H](O)[C@@H]1O + O + CCCCCC[n+]1ccn(C)c1.[Br-]
viscosity [mPa·s], 100 kPa
Details | x1 = 0.001819, x3 = 0 | x1 = 0.002681, x3 = 0 | x1 = 0.003595, x3 = 0 | x1 = 0.004483, x3 = 0 | x1 = 0.006262, x3 = 0 | x1 = 0.007151, x3 = 0 | x1 = 0.008891, x3 = 0
288.15 K | 1.252 | 1.306 | 1.362 | 1.414 | 1.517 | 1.571 | 1.678
298.15 K | 0.98 | 1.021 | 1.065 | 1.104 | 1.182 | 1.222 | 1.295
308.15 K | 0.789 | 0.822 | 0.855 | 0.886 | 0.949 | 0.978 | 1.035
318.15 K | 0.657 | 0.683 | 0.709 | 0.733 | 0.783 | 0.805 | 0.86
